This is an account of results in ChEMBL document CHEMBL3739393, “Synthesis, Structural Characterization, and Bioactivity of the Stable Peptide RCB-1 from Ricinus communis” (J Nat Prod, 2015).

Positions of bridges follow the written chain, without caps; N, C: chain ends. Residues, ends and D or L forms follow the SMILES beside them. Bounds are passed on as bounds.

Broadly, the EC50 is the concentration at which the effect is half-maximal. Read a high EC50 as weaker potency.

Data set [1] is described as follows: Stability in human serum assessed as compound remaining after 24 hrs at 37 degC by LC/MS analysis. In kind it is ADME. Particulars: read-out: Stability.
Data set [2] deals with Escherichia coli. As to the kind of experiment: Antibacterial activity against Escherichia coli ATCC 25922 incubated for 5 hrs. In kind it is functional, organism-based. The note with it: ATCC 25922, 5 h.
Data set [3] concerns Aspergillus fumigatus. As to the kind of experiment: Antifungal activity against Aspergillus fumigatus incubated for 5 hrs. In kind it is functional, organism-based.
Data set [4] concerns Candida albicans. As to the kind of experiment: Antifungal activity against Candida albicans ATCC 90028 incubated for 5 hrs. In kind it is functional, organism-based. The note with it: ATCC 90028, 5 h.
The subject of data set [5] is Erwinia amylovora. As to the kind of experiment: Antibacterial activity against Erwinia amylovora incubated for 5 hrs. In kind it is functional, organism-based.
A short description of data set [6]: Cytotoxicity against human U937/GTB cells up to 50 uM by fluorescein diacetate-based fluorometric microculture cytotoxicity assay. Particulars: u-937/gtb. In kind it is cell-based.
In data set [7] the test system is Staphylococcus aureus. As to the kind of experiment: Antibacterial activity against Staphylococcus aureus ATCC 29213 incubated for 5 hrs. Particulars: ATCC 29213, 5 h. In kind it is functional, organism-based.
Data set [8] concerns Pectobacterium carotovorum. Nature of the data set: Antibacterial activity against Erwinia carotovora incubated for 5 hrs. In kind it is functional, organism-based.
In data set [9] the test system is Pseudomonas aeruginosa. Nature of the data set: Antibacterial activity against Pseudomonas aeruginosa ATCC 27853 incubated for 5 hrs. In kind it is functional, organism-based. The note with it: ATCC 27853, 5 h.

Turning to `CSCC[C@@H]1NC(=O)[C@H](C(C)C)NC(=O)[C@H](CC(C)C)NC(=O)[C@@H]2CSSC[C@@H](C(=O)N[C@@H](CO)C(=O)O)NC(=O)[C@H](Cc3ccccc3)NC(=O)[C@H](CCCCN)NC(=O)[C@H](C(C)C)NC(=O)[C@H](CSSC[C@H](NC(=O)[C@H](CCCNC(=N)N)NC(=O)[C@H](C)N)C(=O)N2)NC(=O)[C@H](C)NC(=O)[C@H](Cc2ccccc2)NC(=O)[C@@H]2CCCN2C(=O)[C@@H]2CCCN2C(=O)[C@H](C(C)C)NC(=O)[C@@H]2CCCN2C1=O` (H-ARCCLVMPVPPFACVKFCS-OH; disulfide 3-14, 4-18), the remaining at 24 h in data set [1] was over 95%. Also, the EC50 in data set [2], in data set [3], in data set [4], in data set [5], in data set [7] and in data set [8] was over 160 µM throughout. For the same compound, a half-maximal effect in data set [9] (EC50) was put at 27 µM. Also, the Activity result in [6] is “Non-toxic”.
